# Patent EP4324461A1, “(E)-N-CINAMOYLAMINOALKANOLES WITH MELANOGENESIS INHIBITORY ACTIVITY” (UNIWERSYTET JAGIELLONSKI, priority 2022, dated 2024)
# Key:
# Primary melanocytes [1] = assay: Safety, LDH test in primary melanocytes; type: cell-based; conditions: 48 hours, positive control Triton X-100
# Description: (§1) In order to test the safety of the compounds, both normal human cells were used: keratinocytes (HaCaT), fibroblasts (BJ), primary melanocytes that occur in the skin, as well as human cancer cells: the hepatocarcinoma line HepG2 and the neuroblastoma line SH-SY5Y, which are considered a model for the assessment of hepatocytotoxicity and neurocytotoxicity. The concentrations of the tested compounds in the range of 250-100 µM were used in the studies. The cell lines used in the research were purchased from the American Type Culture Collection (ATCC) and were cultured in media recommended by the manufacturer with the addition of FBS and antibiotics in an incubator ensuring appropriate culture conditions, i.e. humidity, temperature and CO2 concentration. Cells were seeded into multiwell plates and incubated with the test compounds for 48 hours. After this time, MTT and LDH tests were performed to assess cell viability. The MTT test is based on the ability to transform the substrate: [3-(4,5-dimethyl-2-thiazolyl)-2,5-diphenyl-2H-tetrazolium bromide into a colored product only by living cells. The absorbance at 570 nm, which corresponds to the absorption maximum for the product, is directly proportional to cell viability. The LDH test is based on testing the activity of the enzyme lactate dehydrogenase in the culture medium, which is released from cells as a result of damage to the cell membrane, e.g. as a result of cell death. Triton X-100 was used as a positive control in the test. The determination is colorimetric, the substrate is transformed by the released enzyme into a colored product, an increase in absorbance indicates a larger amount of the released enzyme, and thus confirms greater damage to cell membranes. Tables 7 and 8 present the results obtained, which correspond to the viability of cells incubated with the compounds in relation to the viability of cells constituting a control sample, i.e. incubated with the solvent (DMSO) at the same concentration as in the case of the groups tested in the MTT test or in relation to the results obtained for the Triton X-100 positive control in the LDH test. They indicate that the compounds are safe at the concentrations tested. Table 7. Viability of tested normal human cell lines: keratinocytes (HaCaT), fibroblasts (BJ) and primary melanocytes after incubation with the tested compounds - determination in the MTT test (% of solvent control ± SD) and LDH (percentage of positive control - Triton X-100.
# Hepatocarcinoma HepG2 [2] = assay: Safety, LDH test in HepG2; type: cell-based; conditions: 48 hours, positive control Triton X-100
# Description: as §1
# [3] = test system: human reconstructed epidermis model EpiDerm™; assay: Extended skin irritation test in reconstructed human epidermis (EpiDerm), 2 and 7 days; type: cell-based; conditions: 1.0% in 50% PEG (10 µL)
# Description: In order to perform extended skin irritation (safety) tests on the reconstructed human epidermis, the exposure time to the tested compounds was extended to 2 and 7 days in the human reconstructed epidermis model EpiDerm™ from MatTek. The epidermis was cultured according to the manufacturer's recommendations, using appropriate multi-well plates and culture media. Solutions of the tested compounds were applied to the epidermis using a positive displacement pipette and distributed using a sterile glass bulb headed Pasteur pipette. […] The epidermis was cultured in an incubator ensuring appropriate humidity, temperature (37 °C) and CO2 concentration (5%). The medium was replaced daily. After an appropriate incubation time, i.e. 2 days or 7 days, the epidermis was rinsed with sterile DPBS and incubated with MTT (Thiazolyl Blue Tetrazolium bromide) solution at 37 °C for 3 hours. After this time, a purple color of formazan was observed, correlated with tissue viability. […] Moreover, in the medium collected after the first 24 hours of EpiDerm epidermis culture, the level of interleukin 1α (Il-1α), which is a mediator of inflammation, was determined. Its level correlates with the unfavorable (irritating) effect of the tested substances on the epidermis. The level of IL-1α was determined using the Cayman Elisa test. […] Table 6. Viability results and results of interleukin 1α concentration measurement in the culture medium in the irritation test in the reconstructed human epidermis model EpiDerm.
# Fibroblasts (BJ) [4] = assay: Safety, LDH test in fibroblasts; type: cell-based; conditions: 48 hours, positive control Triton X-100
# Description: as §1
# neuroblastoma SH-SY5Y = assay: Safety, LDH test in SH-SY5Y; type: cell-based; conditions: 48 hours, positive control Triton X-100
# Description: as §1
# S. typhimurium TA1537 = assay: Ames microplate test, TA1537; type: cell-based, Salmonella typhimurium;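 also: reference level is the mean solvent-control yellow wells plus SD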
# Description: (§2) Bacteria were grown overnight in growth medium.
# (§3) Table 9. Ames microplate test results.
# Fibroblasts (BJ) [5] = assay: Safety, MTT test in fibroblasts; type: cell-based; conditions: 48 hours
# Description: as §1
# Hepatocarcinoma HepG2 [6] = assay: Safety, MTT test in HepG2; type: cell-based; conditions: 48 hours
# Description: as §1
# Primary melanocytes [7] = assay: Safety, MTT test in primary melanocytes; type: cell-based; conditions: 48 hours
# Description: as §1
# S. typhimurium TA98 = assay: Ames microplate test, TA98; type: cell-based, Salmonella typhimurium;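 also: reference level is the mean solvent-control yellow wells plus SD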
# Description: as §2, §3
# Keratinocytes (HaCaT) = assay: Safety, MTT test in keratinocytes; type: cell-based; conditions: 48 hours
# Description: as §1
# E. coli WP2 = assay: Ames microplate test, E. coli WP2;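 also: bacteria treated 90 min at 37 °C in 24-well plates, then indicator medium dispensed to 384-well plates and incubated 48 h before yellow-well counting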
# Description: The study used the Ames microplate test (Ames MPF™ Penta 2 by Xenometrix, Allschwil, Switzerland). Growth medium, exposure medium, indicator medium, positive controls, hepatic microsomal fraction, NADP, glucose-6-phosphate, Salmonella typhimurium and Escherichia coli strains were components of the purchased experimental kit. Bacteria were grown overnight in growth medium. They were then exposed to the test compound at the appropriate concentration in exposure medium without or with the rat microsomal fraction S9 in 24-well plates for 90 min at 37 °C with shaking. Then, indicator medium was added to the wells and pipetted into 384-well plates, which were incubated for 48 hours at 37 °C without shaking. Results were assessed by counting the wells in which the medium turned yellow for each experimental condition.
smiles,measurement,setting,value
"O=C(/C=C/c1ccccc1)NCCCCCO [Compound A-133, (2E)-N-(5-hydroxypentyl)-3-phenylprop-2-enamide]",Primary melanocytes LDH,Primary melanocytes [1]; 100 µM,4.68 percentage of positive control
same,Primary melanocytes LDH,Primary melanocytes [1]; 150 µM,7.59 percentage of positive control
same,Primary melanocytes LDH,Primary melanocytes [1]; 200 µM,16.71 percentage of positive control
same,Primary melanocytes LDH,Primary melanocytes [1]; 250 µM,19.45 percentage of positive control
same,Hepatocarcinoma HepG2 LDH,Hepatocarcinoma HepG2 [2]; 100 µM,5.31 percentage of positive control
same,Hepatocarcinoma HepG2 LDH,Hepatocarcinoma HepG2 [2]; 150 µM,7.07 percentage of positive control
same,Hepatocarcinoma HepG2 LDH,Hepatocarcinoma HepG2 [2]; 200 µM,9.65 percentage of positive control
same,Hepatocarcinoma HepG2 LDH,Hepatocarcinoma HepG2 [2]; 250 µM,16.13 percentage of positive control
same,Il-1α in culture medium,[3]; medium after the first 24 hours,34.99 ± 1.17 pg/mL
same,"Viability [% of control, mean±SD]",[3]; 2 days,107.19±7.45 % of control
same,"Viability [% of control, mean±SD]",[3]; 7 days,107.26±21.82 % of control
same,Fibroblasts (BJ) LDH,Fibroblasts (BJ) [4]; 100 µM,5.00 percentage of positive control
same,Fibroblasts (BJ) LDH,Fibroblasts (BJ) [4]; 150 µM,4.47 percentage of positive control
same,Fibroblasts (BJ) LDH,Fibroblasts (BJ) [4]; 200 µM,14.72 percentage of positive control
same,Fibroblasts (BJ) LDH,Fibroblasts (BJ) [4]; 250 µM,28.31 percentage of positive control
same,Neuroblastoma SH-SYSY LDH,neuroblastoma SH-SY5Y; 100 µM,5.33 percentage of positive control
same,Neuroblastoma SH-SYSY LDH,neuroblastoma SH-SY5Y; 150 µM,6.93 percentage of positive control
same,Neuroblastoma SH-SYSY LDH,neuroblastoma SH-SY5Y; 200 µM,8.49 percentage of positive control
same,Neuroblastoma SH-SYSY LDH,neuroblastoma SH-SY5Y; 250 µM,13.32 percentage of positive control
same,Increase in the number of yellow wells compared to the reference level,"S. typhimurium TA1537; 0.5 mM, +S9",0.18
same,Increase in the number of yellow wells compared to the reference level,"S. typhimurium TA1537; 0.5 mM, without S9",1.07
same,Increase in the number of yellow wells compared to the reference level,"S. typhimurium TA1537; 1.0 mM, +S9",0.36
same,Increase in the number of yellow wells compared to the reference level,"S. typhimurium TA1537; 1.0 mM, without S9",0.54
same,Increase in the number of yellow wells compared to the reference level,"S. typhimurium TA1537; 2.0 mM, +S9",0.27
same,Increase in the number of yellow wells compared to the reference level,"S. typhimurium TA1537; 2.0 mM, without S9",0.54
same,Fibroblasts (BJ) MTT,Fibroblasts (BJ) [5]; 100 µM,99.41±5.96 % of solvent control
same,Fibroblasts (BJ) MTT,Fibroblasts (BJ) [5]; 150 µM,91.68±3.64 % of solvent control
same,Fibroblasts (BJ) MTT,Fibroblasts (BJ) [5]; 200 µM,87.76±2.71 % of solvent control
same,Fibroblasts (BJ) MTT,Fibroblasts (BJ) [5]; 250 µM,82.50±3.99 % of solvent control
same,Hepatocarcinoma HepG2 MTT,Hepatocarcinoma HepG2 [6]; 100 µM,104.96±7.60 % of solvent control
same,Hepatocarcinoma HepG2 MTT,Hepatocarcinoma HepG2 [6]; 150 µM,100.66±7.39 % of solvent control
same,Hepatocarcinoma HepG2 MTT,Hepatocarcinoma HepG2 [6]; 200 µM,99.09±1.60 % of solvent control
same,Hepatocarcinoma HepG2 MTT,Hepatocarcinoma HepG2 [6]; 250 µM,98.92±2.34 % of solvent control
same,Primary melanocytes MTT,Primary melanocytes [7]; 100 µM,103.69±2.57 % of solvent control
same,Primary melanocytes MTT,Primary melanocytes [7]; 150 µM,101.88±2.47 % of solvent control
same,Primary melanocytes MTT,Primary melanocytes [7]; 200 µM,97.05±2.96 % of solvent control
same,Primary melanocytes MTT,Primary melanocytes [7]; 250 µM,88.88±2.26 % of solvent control
same,Increase in the number of yellow wells compared to the reference level,"S. typhimurium TA98; 0.5 mM, +S9",0.50
same,Increase in the number of yellow wells compared to the reference level,"S. typhimurium TA98; 0.5 mM, without S9",0.44
same,Increase in the number of yellow wells compared to the reference level,"S. typhimurium TA98; 1.0 mM, +S9",0.67
same,Increase in the number of yellow wells compared to the reference level,"S. typhimurium TA98; 1.0 mM, without S9",0.33
same,Increase in the number of yellow wells compared to the reference level,"S. typhimurium TA98; 2.0 mM, +S9",1.00
same,Increase in the number of yellow wells compared to the reference level,"S. typhimurium TA98; 2.0 mM, without S9",0.67
same,Keratinocytes (HaCaT) MTT,Keratinocytes (HaCaT); 100 µM,101.35±2.17 % of solvent control
same,Keratinocytes (HaCaT) MTT,Keratinocytes (HaCaT); 150 µM,101.40±2.08 % of solvent control
same,Keratinocytes (HaCaT) MTT,Keratinocytes (HaCaT); 200 µM,101.51±2.49 % of solvent control
same,Keratinocytes (HaCaT) MTT,Keratinocytes (HaCaT); 250 µM,95.53±2.80 % of solvent control
same,Increase in the number of yellow wells compared to the reference level,"E. coli WP2; 0.5 mM, +S9",0.27
same,Increase in the number of yellow wells compared to the reference level,"E. coli WP2; 0.5 mM, without S9",0.73
same,Increase in the number of yellow wells compared to the reference level,"E. coli WP2; 1.0 mM, +S9",0.44
same,Increase in the number of yellow wells compared to the reference level,"E. coli WP2; 1.0 mM, without S9",0.37
same,Increase in the number of yellow wells compared to the reference level,"E. coli WP2; 2.0 mM, +S9",0.53
same,Increase in the number of yellow wells compared to the reference level,"E. coli WP2; 2.0 mM, without S9",1.10
